Laboratory results: patent publication US20100151104A1, “Preservative System For Beverages Based On Combinations Of Trans-Cinnamic Acid, Lauric Arginate, And Dimethyl Dicarbonate” (priority 2008, published 2010)

Legend:
[1] = Example 8: growth/no growth in energy beverage pH 2.85, 16 weeks; type: cell-based; conditions: pH 2.9, read-out: minimum inhibitory concentration of DMDC required to preserve
Method: A single preparation of base beverage was employed to prepare each of five tests. The beverage formulation chosen mimics that of a Energy beverage and is composed per liter as follows: 209 mg Rebaudioside A (REB A), 248 mg Potassium Citrate 248 mg Flavor-vitamin mixture, 248 mg calcium lactate, 298 mg Xanthan gum, 668 mg citric acid 995 mg color, 995 mg Pomegranate flavor, 24900 mg erythritol. The ingredients were added to RO water adjusted to 90 ppm hardness with calcium chloride and magnesium chloride. The acidity of the product was adjusted to pH 2.85 with a mixture of citric acid and sodium citrate.
Each of the five tests employed the same bio-indicator organisms; Growth (+) versus no growth (−) established by visual inspection or spectrophotometrically. The organisms and the key (code) employed in FIGS. 7a-7e are as follows: Spores, M1 Paecilomyces/Byssochalmys nieva, Pespi isolate D16; C-8UP, Brettanomyces species, Pepsi Isolate; M6, Talaromyces flavus var. flavus ATCC 10512; Brettanomyces species, Pepsi isolate H2O2; Spores, M12 Penicillium camebertii (Pepsi isolate D1)”; an ascospore preparation of Saccharomyces cerevisiae strain 99(Spore) and Y3, Zygosaccharomyce baili Pepsi isolate 906;. Samples were incubated for period of 16 weeks at 25° C. in vessels protective against evaporation. The results are depicted in FIGS. 7a-7e.

[2] = test system: bio-indicator organisms (Zygosaccharomyce baili, Brettanomyces species, Saccharomyces cerevisiae, Paecilomyces lilacinus, Zygosaccharomyces bisporus …); test: Example 4: efficacy of DMDC alone in commercial product types and apple juice medium, 16 weeks; type: cell-based
Method: The efficacy of DMDC in a range of existing commercial product types was established in order to establish a baseline for future testing of products in development. A separate test of efficacy of DMDC alone in the test apple juice medium is used in comparison. Simply, four different products that are packaged without preservatives (aseptic package) were purchased from local markets.
The base test beverage formulation (Apple Juice Medium) was prepared as in other tests herewithin, and consisted of 4% apple juice, 68 g sucrose/L, 52 g glucose/L, 2 g fructose/L prepared in batch water that was formulated to 90 ppm hardness with calcium chloride and magnesium chloride. A pH of 3.4 was achieved through combinations of malic acid and sodium malate
Product was transferred to test vessels and vessels were inoculated with bio-indicator organisms. Immediately after inoculation, the test vessels were sealed with septum seal that allowed dosing of DMDC by Hamilton syringe. Dimethyl dicarbonate stock solution consisted of 1 ml of dimethyl dicarbonate (1.25 g) in 49 ml of 100% ethanol (25 mg/ml). […] After dosing with DMDC, the content of each test vessel was immediately mixed by vortex mixing. All testing was performed at ambient and test solutions were at ambient. […]

[3] = test system: vegetative forms of yeast, mold, and bacteria; conditions: reported by the manufacturer of DMDC; cited from earlier work
[4] = test system: bio-indicator organisms (Zygosaccharomyce baili, Brettanomyces species, Saccharomyces cerevisiae, Paecilomyces lilacinus, Zygosaccharomyces bisporus …); conditions: FIG. 2a; absence of cinnamic acid; pH 3.4; 16 weeks
Source text: A single preparation of base beverage was employed to prepare each of five tests and consisted of 4% apple juice, 68 g sucrose/L, 52 g glucose/L, 2 g fructose/L prepared in batch water that was formulated to 90 ppm hardness with calcium chloride and magnesium chloride. A pH of 3.4 was achieved through combinations of malic acid and sodium malate for all preparations regardless of the presence or absence of lauric arginate or cinnamic acid. The total combined quantity of sodium malate and malic acid was near constant, but the ratio of malic acid and malate varied slightly given the presence or absence of lauric arginate or cinnamic acid. […] Where required, lauric arginate or cinnamic acid was supplemented from separately prepared stock solutions. Dimethyl dicarbonate was delivered by means of hypodermic needle (Hamilton syringe) through septum that sealed the test vessel against loss of moisture. Dimethyl dicarbonate stock solution consisted of 1 ml of dimethyl dicarbonate (1.25 g) in 49 ml of 100% ethanol (25 mg/ml).
Each of the five tests employed the same bio-indicator organisms; Growth (+) versus no growth (−) established by visual inspection or spectrophotometrically. […]

[5] = test system: bio-indicator organisms; mold strains M1 (Paecilomyces/Byssochalmys nieva) and M6 (Talaromyces flavus var. flavus); test: Example 6: growth/no growth in enhanced water product pH 4.5, 16 weeks; type: cell-based; conditions: FIG. 5a; enhanced water pH 4.5; DMDC singular antimicrobial agent
Method: A single preparation of base beverage was employed to prepare each of five tests. The beverage formulation chosen mimics that of an enhanced water product and is composed per liter as follows 37.2 mg Acesulfame K+; 100mg Vitamin E acetate, 54.1 mg Vitamin B mix, 331 mg sucralose 748 mg grape flavor, 3236 mg of liquid sucrose, 26.5 mg antifoam, 20 mg polysorbate. The ingredients were added to RO water adjusted to 90 ppm hardness with calcium chloride and magnesium chloride. The acidity of the product was adjusted to pH 4.5 with a mixture of succinic acid and Sodium succinate dibasic hexadydrate. The total concentration of succinic acid in solution was approximately 8 mM.
Each of the five tests employed the same bio-indicator organisms; Growth (+) versus no growth (−) established by visual inspection or spectrophotometrically. The organisms and the key (code) employed in FIGS. 5a-5e are as follows: Spores, M1 Paecilomyces/Byssochalmys nieva, Pespi isolate D16; C-7UP, Brettanomyces species, Pepsi Isolate; Spores, M6, Talaromyces flavus var. flavus ATCC 10512; Brettanomyces species, Pepsi isolate H202; Acetobacter species, Pepsi isolate “Atlanta”; an ascospore preparation of Saccharomyces cerevisiae strain 99(Spore) and Y3, Zygosaccharomyce baili, Pepsi isolate 906;. Samples were incubated for period of 16 weeks at 25° C. in vessels protective against evaporation. […]

[6] = test system: bio-indicator organisms; mold strains M1 (Paecilomyces/Byssochalmys nieva) and M6 (Talaromyces flavus var. flavus); test: Example 7: growth/no growth in green tea beverage pH 5.5, 16 weeks; type: cell-based; conditions: pH 5.5, read-out: minimum inhibitory concentration of DMDC required to preserve
Method: A single preparation of base beverage was employed to prepare each of five tests. The beverage formulation chosen mimics that of a green tea beverage composed per liter as follows: 170 mg Citrus Pectin; 500 mg honey granules 550 mg Acerola Dry Vitamin C, 1,332 mg green tea solid, 2,046 mg tea flavor; 65,590 mg granulated sucrose. The ingredients were added to RO water adjusted to 90 ppm hardness with calcium chloride and magnesium chloride. The acidity of the product was adjusted to pH 5.5 with a mixture of succinic acid and sodium succinate dibasic hexadydrate. The total concentration of succinic acid in solution was approximately 8 mM.
Each of the five tests employed the same bio-indicator organisms; Growth (+) versus no growth (−) established by visual inspection or spectrophotometrically. The organisms and the key (code) employed in FIGS. 6a-6e are as follows: Spores, M1 Paecilomyces/Byssochalmys nieva, Pespi isolate D16; C-7UP, Brettanomyces species, Pepsi Isolate; Spores, M6, Talaromyces flavus var. flavus ATCC 10512; Brettanomyces species, Pepsi isolate H202; Acetobacter species, Pepsi isolate “Atlanta”; an ascospore preparation of Saccharomyces cerevisiae strain 99(Spore) and Y3, Zygosaccharomyce baili, Pepsi isolate 906;. Samples were incubated for period of 16 weeks at 25° C. in vessels protective against evaporation. The results are depicted in FIGS. 6a-6e.

[7] = test system: mold spores (Byssochlamyus nieva and Paecilomyces variotti); test: Germination of bio-indicator mold spores with ascorbic acid and potassium sorbate; type: cell-based
Source text: Ascorbic acid may be incorporated as part of the microbiological chemical preservation system. Ascorbic acid is not generally considered an antimicrobial. Instead, ascorbic acid is understood to “preserve” food ingredients against oxidation. In this respect, ascorbic acid is understood to be “anti-oxidant” preservative.

## COC(=O)OC(=O)OC [DMDC, dimethyl dicarbonate]
[1]
  MIC: < 125 µg/mL
[2]; commercial tea beverage (pH 3.3) with honey, DMDC 2.61 mM (350 ppm)
  stability against spoilage: unstable against spoilage
[2]; green tea formulation containing lemon flavor, DMDC alone
  DMDC concentration that stabilized the formulation: 0.75 mM
[3]
  concentration required to stabilize beverage for 16 weeks: at least 250 mg/liter
[4]
  DMDC required to inhibit the growth of all bio-indicator organisms: 0.95 mM
[5]
  concentration of DMDC tolerated by M1 and M6: ≥ 200 ppm
[6]
  MIC: > 225 µg/mL

## C/C=C/C=C/C(=O)[O-].[K+] [Potassium sorbate, Potassium Sorbate, reference compound]
[7]; Potassium sorbate alone at concentrations below 200 ppm
  prevention of spore germination: unable to prevent spore germination

## O=C1O[C@H]([C@@H](O)CO)C(O)=C1O [ascorbic acid]
[7]; ascorbic acid alone at 400 ppm
  effect on spore germination: able to retard germination
